Assay results from PMC7803973, “Structural basis of malaria parasite phenylalanine tRNA-synthetase inhibition by bicyclic azetidines” (Nature Communications, 2021).
Where “and” joins values, the source holds several entries; their conditions need not be identical. Identical values can stand only once.

Assays:
PfcFRS = target: T1, PfcFRS (Plasmodium falciparum, UniProt Q8I246); experiment: Surface plasmon resonance binding; conditions: Pf; SPR, 1:1 binding model; read-out: Kd (cFRS)
T1 sequence (Q8I246 1-575): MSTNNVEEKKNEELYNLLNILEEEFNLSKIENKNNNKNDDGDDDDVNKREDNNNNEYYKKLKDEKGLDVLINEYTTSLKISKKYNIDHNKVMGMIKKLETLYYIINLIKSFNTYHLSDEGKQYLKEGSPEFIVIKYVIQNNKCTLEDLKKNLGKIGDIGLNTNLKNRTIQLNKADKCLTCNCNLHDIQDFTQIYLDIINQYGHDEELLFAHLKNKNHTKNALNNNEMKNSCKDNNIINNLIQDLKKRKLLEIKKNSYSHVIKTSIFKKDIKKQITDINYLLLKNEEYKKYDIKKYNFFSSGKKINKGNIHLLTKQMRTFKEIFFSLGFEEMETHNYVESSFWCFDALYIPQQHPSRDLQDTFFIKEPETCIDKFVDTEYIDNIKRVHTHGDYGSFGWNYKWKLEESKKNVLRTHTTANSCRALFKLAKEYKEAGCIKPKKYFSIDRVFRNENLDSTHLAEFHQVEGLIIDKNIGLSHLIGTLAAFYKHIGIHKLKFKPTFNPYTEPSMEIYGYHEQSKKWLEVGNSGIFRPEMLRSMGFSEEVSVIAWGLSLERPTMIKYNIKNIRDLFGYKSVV
T1 sequence (Q8IIW2 1-623 partner): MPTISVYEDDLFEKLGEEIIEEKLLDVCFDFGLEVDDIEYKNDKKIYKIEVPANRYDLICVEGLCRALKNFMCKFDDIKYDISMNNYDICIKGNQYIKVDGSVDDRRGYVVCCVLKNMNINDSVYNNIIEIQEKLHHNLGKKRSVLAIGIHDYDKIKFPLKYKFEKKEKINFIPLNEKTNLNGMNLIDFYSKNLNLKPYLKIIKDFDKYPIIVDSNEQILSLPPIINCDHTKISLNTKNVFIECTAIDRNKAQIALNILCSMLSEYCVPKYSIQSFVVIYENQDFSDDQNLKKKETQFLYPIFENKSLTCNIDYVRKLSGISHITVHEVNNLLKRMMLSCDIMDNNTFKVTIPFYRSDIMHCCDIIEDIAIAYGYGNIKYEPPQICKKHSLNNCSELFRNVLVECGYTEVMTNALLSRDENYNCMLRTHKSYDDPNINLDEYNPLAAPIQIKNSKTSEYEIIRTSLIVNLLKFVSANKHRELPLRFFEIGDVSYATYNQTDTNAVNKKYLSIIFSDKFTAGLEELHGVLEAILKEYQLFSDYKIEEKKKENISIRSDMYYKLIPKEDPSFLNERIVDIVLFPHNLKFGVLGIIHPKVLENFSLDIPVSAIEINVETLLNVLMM
Protocol: (§1) These were carried out on a Biacore T200 instrument (GE Healthcare) at 25 °C. The binding experiments were performed in buffer 10 mM phosphate buffered saline (PBS), pH 7.4, containing 5% dimethyl sulfoxide (DMSO). The flow system was primed with the running buffer before the initiation of the experiment. Both PfcFRS and HscFRS were immobilized to Sensor Chip CM5 by standard amine coupling chemistry using N-hydroxysuccinimide (NHS) and ethyl(dimethylaminopropyl) carbodiimide (EDC) to an immobilization level of approximately 1500 RU. The binding experiments were carried out in a single cycle kinetics mode. BRD1389 was serially diluted in running buffer and injected at a flow rate of 60 μl min^−1 across both surfaces for 60 s and dissociations were set up for 120 s. The data analysis was done using Biacore evaluation T200 Evaluation software (GE Healthcare) and after applying the solvent correction, the data was fitted into the 1:1 binding evaluation method to determine the equilibrium dissociation constants (Kd).

HscFRS = HscFRS (Homo sapiens, UniProt Q9Y285); experiment: Surface plasmon resonance binding; conditions: Hs; SPR, 1:1 binding model; read-out: Kd (cFRS)
HscFRS, sequence (Q9NSD9 whole entry): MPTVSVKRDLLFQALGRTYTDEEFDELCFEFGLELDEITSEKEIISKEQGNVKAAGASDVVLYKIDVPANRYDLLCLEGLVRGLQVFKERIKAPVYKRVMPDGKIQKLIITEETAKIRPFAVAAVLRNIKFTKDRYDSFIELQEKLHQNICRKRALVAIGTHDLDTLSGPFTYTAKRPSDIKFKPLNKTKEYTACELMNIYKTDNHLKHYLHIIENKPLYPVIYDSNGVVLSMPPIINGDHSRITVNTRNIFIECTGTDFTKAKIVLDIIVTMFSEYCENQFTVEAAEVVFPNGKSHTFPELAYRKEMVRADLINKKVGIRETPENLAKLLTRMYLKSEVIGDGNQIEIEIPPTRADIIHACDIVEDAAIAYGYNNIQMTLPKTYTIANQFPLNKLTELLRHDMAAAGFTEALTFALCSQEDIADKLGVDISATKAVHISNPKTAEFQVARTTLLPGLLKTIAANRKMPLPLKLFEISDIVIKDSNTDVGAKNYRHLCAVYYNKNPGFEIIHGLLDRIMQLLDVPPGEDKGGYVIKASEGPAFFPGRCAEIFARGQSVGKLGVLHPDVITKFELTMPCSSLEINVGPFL
HscFRS, sequence (Q9Y285 whole entry): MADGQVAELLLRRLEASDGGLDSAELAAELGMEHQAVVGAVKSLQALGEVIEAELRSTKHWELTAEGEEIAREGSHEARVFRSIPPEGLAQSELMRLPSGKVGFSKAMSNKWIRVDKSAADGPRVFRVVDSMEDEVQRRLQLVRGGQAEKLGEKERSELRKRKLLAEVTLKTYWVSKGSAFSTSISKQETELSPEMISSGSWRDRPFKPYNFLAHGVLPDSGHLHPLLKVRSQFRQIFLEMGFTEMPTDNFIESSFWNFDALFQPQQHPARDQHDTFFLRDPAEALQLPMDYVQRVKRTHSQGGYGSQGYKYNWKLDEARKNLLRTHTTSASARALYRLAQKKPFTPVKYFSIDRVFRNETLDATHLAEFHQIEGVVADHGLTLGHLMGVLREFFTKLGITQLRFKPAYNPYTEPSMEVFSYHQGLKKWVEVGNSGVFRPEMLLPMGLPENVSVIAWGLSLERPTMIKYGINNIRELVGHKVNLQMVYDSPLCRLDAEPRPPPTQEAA
Protocol: as §1

[1] = system: Plasmodium falciparum strain K1; experiment: microbe, parasite or virus in culture; assay type: cell-based
Protocol: The cultivation of P. falciparum was conducted according to Trager’s method with some modification. Precisely, parasites were kept in culture flasks with RPMI1640 medium supplemented with 10% human plasma and 2% fresh human erythrocytes and incubated at 37 °C with the gas condition of 5% CO2 and 5% O2. The parasitemia (percentage of infected erythrocytes to total erythrocytes) were kept within 0.25–10%. Culture medium was replaced, and fresh erythrocytes were supplied every 2–3 days. Drug susceptibility test was conducted according to Desjardins’s method[18] with some modification. […] […] The plates were kept at 37 °C with the gas condition of 5% CO2 and 5% O2 for 72 h and then parasite growth was quantified with Makler’s method to detect plasmdoial lactate dehydrogenase[19] with some modification. Precisely, culture plates were kept in freezer overnight and then thawed at 37 °C to disrupt the erythrocytes and parasite cells. In the new 96-well titer plates, 100 μl of enzyme reaction solution (110 mM Li-lactate, 0.5 mM acetylpyridine-adenine dinucleotide, 50 mM Tris (pH 7.5), 10 mM EDTA, 50 mM KCl, and 15 g l^−1 PEG6000) and 20 µl of freeze-thaw culture were mixed in each well and then kept at room temperature for 30 min. The detection solution was prepared by mixing equal volume of 2 mg ml^−1 nitro blue tetrazolium and 0.1 mg ml^−1 phenazine ethosulfate and 20 µl of the solution was added to each well.

Compound: COC[C@@H]1[C@H](c2ccc(C#Cc3ccccc3)cc2)[C@@H]2CN(C(=O)Nc3ccc(OC4CC4)cc3)C[C@@H](O)[C@@H](O)CN12 [BRD1389]
- Kd (PfcFRS): 4 nM
- Kd (HscFRS): 16 µM
- % Parasite Growth ([1]; K1, 0.000976562 ug/mL): 92.8%
- % Parasite Growth ([1]; K1, 0.00195312 ug/mL): 94.4%
- % Parasite Growth ([1]; K1, 0.00390625 ug/mL): 90.7%
- % Parasite Growth ([1]; K1, 0.0078125 ug/mL): 40.5%
- % Parasite Growth ([1]; K1, 0.015625 ug/mL): 14.2%
- % Parasite Growth ([1]; K1, 0.03125 ug/mL): 15.9%
- % Parasite Growth ([1]; K1, 0.0625 ug/mL): 4.7%
- % Parasite Growth ([1]; K1, 0.125 ug/mL): 2.9%
- % Parasite Growth ([1]; K1, 0.25 ug/mL): 2.1%
- % Parasite Growth ([1]; K1, 0.5 ug/mL): 2.6%
- % Parasite Growth ([1]; K1, 1 ug/mL): 2.6%
- IC50 ([1]; Plasmodium falciparum, K1): 0.00685 µg/mL and 12.1 nM
- EC50 ([1]; Plasmodium falciparum, K1, 72 h): 12 nM
